In patent US9446039B2, “Aminoheteroaryl compounds as MTH1 inhibitors” (CEMM—FORSCHUNGSZENTRUM FÜR MOLEKULARE MEDIZIN GMBH, priority 2012, dated 2016):

Tests used:
[1] = target: SW480 colon carcinoma cells lysate proteins (Homo sapiens, UniProt Q16555); type: binding; conditions: PreyGene DPYSL2
[2] = target: T1, SW480 colon carcinoma cells lysate proteins (Homo sapiens, UniProt O00232); type: binding; conditions: PreyGene PSMD12
T1 sequence (O00232 1-456): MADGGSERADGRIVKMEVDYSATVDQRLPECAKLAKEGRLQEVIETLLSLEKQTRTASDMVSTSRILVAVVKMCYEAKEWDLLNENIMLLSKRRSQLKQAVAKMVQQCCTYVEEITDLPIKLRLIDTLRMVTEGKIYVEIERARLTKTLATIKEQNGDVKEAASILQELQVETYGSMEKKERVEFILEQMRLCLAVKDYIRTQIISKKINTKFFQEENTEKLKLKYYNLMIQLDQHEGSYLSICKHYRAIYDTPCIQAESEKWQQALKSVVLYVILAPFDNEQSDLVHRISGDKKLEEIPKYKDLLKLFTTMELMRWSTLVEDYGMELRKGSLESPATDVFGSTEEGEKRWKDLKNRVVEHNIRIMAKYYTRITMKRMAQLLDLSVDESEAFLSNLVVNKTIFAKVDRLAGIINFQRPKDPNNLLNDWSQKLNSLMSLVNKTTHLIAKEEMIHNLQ

[3] = target: T2, SW480 colon carcinoma cells lysate proteins (Homo sapiens, UniProt Q9BRA2); type: binding; conditions: PreyGene TXNDC17
T2 sequence (Q9BRA2 1-123): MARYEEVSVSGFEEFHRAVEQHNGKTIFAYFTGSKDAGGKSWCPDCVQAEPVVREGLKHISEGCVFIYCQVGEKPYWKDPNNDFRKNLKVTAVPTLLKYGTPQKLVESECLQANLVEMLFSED

[4] = target: SW480 colon carcinoma cells lysate proteins (Homo sapiens, UniProt P23528); type: binding; conditions: PreyGene CFL1
SW480 colon carcinoma cells lysate proteins (Homo sapiens, UniProt P23528), sequence (P23528 whole entry): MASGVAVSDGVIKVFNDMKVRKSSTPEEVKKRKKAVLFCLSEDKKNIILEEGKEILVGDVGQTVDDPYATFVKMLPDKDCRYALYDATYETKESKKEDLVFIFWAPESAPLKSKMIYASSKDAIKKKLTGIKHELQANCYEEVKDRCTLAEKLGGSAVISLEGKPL

[5] = target: SW480 colon carcinoma cells lysate proteins (Homo sapiens, UniProt Q9Y262); type: binding; conditions: PreyGene EIF3L; SW480 cells
SW480 colon carcinoma cells lysate proteins (Homo sapiens, UniProt Q9Y262), sequence (Q9Y262 whole entry): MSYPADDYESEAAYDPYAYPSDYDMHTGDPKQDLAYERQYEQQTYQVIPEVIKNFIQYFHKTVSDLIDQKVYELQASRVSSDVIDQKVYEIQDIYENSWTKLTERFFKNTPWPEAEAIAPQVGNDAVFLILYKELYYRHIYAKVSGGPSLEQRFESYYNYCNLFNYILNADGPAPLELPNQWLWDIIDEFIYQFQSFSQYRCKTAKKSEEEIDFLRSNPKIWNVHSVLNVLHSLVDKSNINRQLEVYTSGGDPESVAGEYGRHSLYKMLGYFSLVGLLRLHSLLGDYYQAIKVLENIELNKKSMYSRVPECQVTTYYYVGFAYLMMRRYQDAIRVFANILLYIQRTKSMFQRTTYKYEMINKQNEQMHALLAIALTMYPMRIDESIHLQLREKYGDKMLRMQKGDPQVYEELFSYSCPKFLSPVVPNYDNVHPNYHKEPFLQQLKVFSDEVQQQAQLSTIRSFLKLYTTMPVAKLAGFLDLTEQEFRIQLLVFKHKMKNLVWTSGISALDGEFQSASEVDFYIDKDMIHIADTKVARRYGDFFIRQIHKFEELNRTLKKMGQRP

[6] = target: SW480 colon carcinoma cells lysate proteins (Homo sapiens, UniProt P15531); type: binding; conditions: PreyGene NME1
SW480 colon carcinoma cells lysate proteins (Homo sapiens, UniProt P15531), sequence (P15531 whole entry): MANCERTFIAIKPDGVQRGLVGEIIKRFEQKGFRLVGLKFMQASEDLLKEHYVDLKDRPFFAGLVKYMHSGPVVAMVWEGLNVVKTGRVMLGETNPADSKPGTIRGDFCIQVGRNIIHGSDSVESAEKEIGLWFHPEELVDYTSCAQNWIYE

[7] = target: T3, SW480 colon carcinoma cells lysate proteins (Homo sapiens, UniProt Q14444); type: binding; conditions: PreyGene CAPRIN1
T3 sequence (Q14444 1-709): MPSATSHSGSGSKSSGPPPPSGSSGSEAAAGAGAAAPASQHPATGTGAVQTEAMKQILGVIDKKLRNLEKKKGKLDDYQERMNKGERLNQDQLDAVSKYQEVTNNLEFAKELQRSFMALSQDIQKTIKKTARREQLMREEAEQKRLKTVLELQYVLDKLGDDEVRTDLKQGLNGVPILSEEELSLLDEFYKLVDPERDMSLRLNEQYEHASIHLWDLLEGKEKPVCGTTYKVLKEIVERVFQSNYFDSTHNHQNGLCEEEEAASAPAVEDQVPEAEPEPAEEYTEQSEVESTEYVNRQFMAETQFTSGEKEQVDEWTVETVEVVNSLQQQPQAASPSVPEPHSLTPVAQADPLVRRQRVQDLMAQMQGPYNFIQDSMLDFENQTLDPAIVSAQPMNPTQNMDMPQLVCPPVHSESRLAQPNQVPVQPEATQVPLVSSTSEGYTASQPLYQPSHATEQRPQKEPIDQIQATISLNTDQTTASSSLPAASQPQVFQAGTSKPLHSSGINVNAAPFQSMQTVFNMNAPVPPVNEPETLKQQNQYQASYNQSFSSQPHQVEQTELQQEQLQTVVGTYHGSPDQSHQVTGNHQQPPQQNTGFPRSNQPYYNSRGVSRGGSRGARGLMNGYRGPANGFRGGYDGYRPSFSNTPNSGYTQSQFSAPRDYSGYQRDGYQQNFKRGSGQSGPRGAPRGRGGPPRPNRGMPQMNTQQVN

[8] = system: SW480 colon carcinoma cells lysate proteins; type: binding, human; conditions: PreyGene EIF3C, EIF3CL; SW480 cells
[9] = target: T4, SW480 colon carcinoma cells lysate proteins (Homo sapiens, UniProt P50454); type: binding; conditions: PreyGene SERPINH1
T4 sequence (P50454 19-418): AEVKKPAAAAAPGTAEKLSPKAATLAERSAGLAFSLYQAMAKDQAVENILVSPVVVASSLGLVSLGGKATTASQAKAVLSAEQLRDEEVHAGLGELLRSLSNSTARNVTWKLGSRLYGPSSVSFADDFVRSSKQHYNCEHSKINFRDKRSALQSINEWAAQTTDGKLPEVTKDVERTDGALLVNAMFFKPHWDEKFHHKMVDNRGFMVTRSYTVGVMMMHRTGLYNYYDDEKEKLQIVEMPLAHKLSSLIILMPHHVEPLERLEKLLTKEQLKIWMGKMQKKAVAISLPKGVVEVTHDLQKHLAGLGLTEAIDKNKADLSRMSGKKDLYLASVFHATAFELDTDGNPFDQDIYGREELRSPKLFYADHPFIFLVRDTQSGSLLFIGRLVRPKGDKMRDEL

For C[C@H](Oc1cc(-c2cnn(C3CCNCC3)c2)cnc1N)c1c(Cl)ccc(F)c1Cl [(5)-crizotinib], the AvgP [1] was 0.3678, the “SC.Exp. 1-1” value [1] was 6 and the “SC.Exp. 1-2” value [1] was 4. The “SC.Exp. 2-1” value [1] was 0, the “SC.Exp. 2-2” value [1] was 0 and the “Sum (SC.Exp.)” value [1] was 10. The AvgP [2] was 0.35, the “SC.Exp. 1-1” value [2] was 2 and the “SC.Exp. 1-2” value [2] was 2. The “SC.Exp. 2-1” value [2] was 0, the “SC.Exp. 2-2” value [2] was 0 and the “Sum (SC.Exp.)” value [2] was 4. For the same compound, the AvgP [3] was 0.1862, the “SC.Exp. 1-1” value [3] was 2 and the “SC.Exp. 1-2” value [3] was 3. The “SC.Exp. 2-1” value [3] was 0, the “SC.Exp. 2-2” value [3] was 0 and the “Sum (SC.Exp.)” value [3] was 5. For the same compound, the AvgP [4] was 0.3871, the “SC.Exp. 1-1” value [4] was 12 and the “SC.Exp. 1-2” value [4] was 11. For the same compound, the “SC.Exp. 2-1” value [4] was 1, the “SC.Exp. 2-2” value [4] was 0 and the “Sum (SC.Exp.)” value [4] was 24. The AvgP [5] was 0, the “SC.Exp. 1-1” value [5] was 9 and the “SC.Exp. 1-2” value [5] was 7. For the same compound, the “SC.Exp. 2-1” value [5] was 6, the “SC.Exp. 2-2” value [5] was 4 and the “SC.Exp. Sum” value [5] was 26. For the same compound, the AvgP [6] was 0.4442, the “SC.Exp. 1-1” value [6] was 6 and the “SC.Exp. 1-2” value [6] was 4. The “SC.Exp. 2-1” value [6] was 0, the “SC.Exp. 2-2” value [6] was 0 and the “Sum (SC.Exp.)” value [6] was 10. The AvgP [7] was 0.2355, the “SC.Exp. 1-1” value [7] was 2 and the “SC.Exp. 1-2” value [7] was 2. For the same compound, the “SC.Exp. 2-1” value [7] was 0, the “SC.Exp. 2-2” value [7] was 0 and the “Sum (SC.Exp.)” value [7] was 4. For the same compound, the AvgP [8] was 0, the “SC.Exp. 1-1” value [8] was 4 and the “SC.Exp. 1-2” value [8] was 6. The “SC.Exp. 2-1” value [8] was 7, the “SC.Exp. 2-2” value [8] was 7 and the “SC.Exp. Sum” value [8] was 24. The AvgP [9] was 0.3843, the “SC.Exp. 1-1” value [9] was 5 and the “SC.Exp. 1-2” value [9] was 6. For the same compound, the “SC.Exp. 2-1” value [9] was 0, the “SC.Exp. 2-2” value [9] was 0 and the “Sum (SC.Exp.)” value [9] was 11.
